This note sets out measurements from US6897227B2, “Prodrugs of proton pump inhibitors” (Winston Pharmaceuticals, Inc., priority 2002, dated 2005).

Some results are limits rather than exact numbers.

Series [1] can be described thus: Solubility in phosphate buffered saline buffer of pH 7.4 at 37° C. The following applies: aqueous buffer, sodium salts, phosphate buffered saline buffer pH 7.4, read-out: Solubility at 37° C. Conc. It counts as physicochemical. How it is done:
The solubility of the sodium salts of certain exemplary compounds of the present invention in a phosphate buffered saline buffer of pH 7.4 (50 mM sodium phosphate, 10 mM KCl, 0.1 M NaCl) and also in a more acidic Britton Robinson buffer of pH 3 (40 mM acetic acid, 40 mM phosphoric acid, 40 mM boric acid, 36 mM NaOH, and 19.6 mg/ml KCl) was also evaluated. […] The tested compounds were much less soluble little in the Britton Robinson buffer of pH 3, but still more soluble than the prior art compounds (a) through (f). This is understandable in view of the fact that in the buffer of pH 7.4 the compounds of the invention form a sodium salt, whereas in the buffer of pH 3 the compounds are less soluble free carboxylic acids. Thus, a solution of a sodium or other pharmaceutically acceptable salt of the compounds of the invention, or stated in an other way the compounds of the invention at pH 7 or above are highly soluble and therefore suitable for administration by intravenous injection.

Series [2] is described as follows: Aqueous solubility (water / distilled water). It counts as physicochemical. The following applies: free carboxylic acids. The source says:
A further significant advantage of the proton pump inhibitor prodrugs of the present invention relative to the proton pump inhibitor prodrugs disclosed in U.S. Pat. No. 6,093,734, 6,559,167 and PCT Publication WO 00109498 and to all other prior art is their increased solubility.

The test system of series [3] is histamine and carbachol-stimulated gastric acid secretion. As to the kind of experiment: Inhibition of gastric acid secretion of the conscious male rat, oral administration. It counts as in vivo, rat (Sprague-Dawley). The note with it: sodium salt; for inhibition in vivo at 40 µmol/kg: 40 μmole/kg, read-out: % inhibition of gastric acid secretion between 3-5 hours after administration. The procedure: Male rats (the Sprague-Dawley strain) were used in this experiment. OMEPRAZOLE sodium salt or LANSOPRAZOLE sodium salt (20 mg) was suspended in 10 ml of 0.1 N NaHCO3. 40 mg of each of the sodium salts of Compound 1, Compound 2, Compound 3, Compound 4, Compound 6 Compound 9, Compound 12, mixture (1:1) of Compound 16 and 17, mixture (1:1) of Compound 18 and 19, mixture (1:1) of Compound 20 and 21, mixture (1:1) of Compound 22 and 23, Compound 27, mixture (1:1) of Compound 34 and 35, and Compound 36 were dissolved in 10 ml of 50 mM sodium phosphate buffer, pH 7.4. The doses administered to the rats were as follows (μmole per kg body weight of the rat): OMEPRAZOLE (10 μmole/kg), LANSOPRAZOLE (10 μmole/kg), Compound 120 μmole/kg, Compound 2 40 μmole/kg, Compound 320 μmole/kg, Compound 420 μmole/kg, Compound 620 μmole/kg, Compound 940 μmole/kg, Compound 1240 μmole/kg, mixture (1:1) of Compound 16 and 17 40 μmole/kg, mixture (1:1) of Compound 18 and 19 40 μmole/kg, mixture (1:1) of Compound 20 and 21 40 μmole/kg, mixture (1:1) of Compound 22 and 23 40 μmole/kg, Compound 27 40 μmole/kg, mixture (1:1) of Compound 34 and 35 40 μmole/kg, and Compound 3640 μmole/kg. These drug solutions were orally administered.
(§1) 3 hours after administration the abdomen of the rat was incised and the pylorus was ligated under light ether anethesia. Histamine (30 mg/kg) and carbachol (30 μg/kg) were subcutaneously injected for acid stimulation. Immediately the abdomen was closed. Two hours later, the esophagus was ligated and the stomach was removed. The gastric juice was collected and acid output was quantified by titration using 0.1 N NaOH solution. As a control experiment, 1 ml of 50 mM phosphate buffer (pH 7.4) solution was orally administrated without any prodrug or proton pump inhibitory drug. Acid output was quantified by same method as described above, showing maximum histamine and carbachol-stimulated gastric acid secretion. Percentage inhibition was calculated from the fractional responses elicited by the test compound and a control experiment.

The nature of series [4]: Stability in plasma at 37° C. (gradient HPLC-UV), rat plasma. It counts as in vitro ADME. How it is done:
Exemplary test compounds (prodrugs) of the invention were incubated in plasma at 37° C., and the concentration of the compounds and also of the corresponding proton pump inhibitor compounds (PPI) were determined by a gradient HPLC-UV method. Although the half-lives of test compounds in plasma varies depending on their structure, nevertheless it is apparent that in plasma the compounds of the invention are converted into the corresponding proton pump inhibitor at a rate faster than the hydrolysis rate of the compound at neutral or near neutral pH.

The next series concerns gastric acid secretion. As to the kind of experiment: Inhibition of gastric acid secretion in rat, intravenous administration. It counts as in vivo. The note with it: 5 μmole/kg. The procedure:
as §1
Inhibition of gastric acid secretion after intravenous administration of compounds of the invention was also examined. Lansoprazole sodium salt (20 mg) was dissolved in 40% hydroxypropyl-beta-cyclodextrin. The compounds of the invention used in this experiment were dissolved in phosphate buffered saline solution of pH 7.4. Each compound was injected intravenously at a dose of 5 μmole/kg or 10 μmole/kg (μmole per kg body weight of rat) as indicated in Table 4 below. Between 2 to 4 hours after injection gastric juice was collected, and the percentage of inhibition was determined as described above.

Series [5] can be described thus: Stability in Britton Robinson buffers (hydrolysis of prodrug to PPI, HPLC). The note with it: Britton Robinson buffer, pH 7.
Protocol: (§2) The stability of Compounds 1, 2, 3, 4 and 5 of the invention in aqueous solution (0.1 mg/mL) was investigated in Britton Robinson buffers of pH 3, pH 7, and pH 9, respectively. A solution of 0.1 mg/mL concentration of each compound in each buffer was prepared and the solutions were stored at 37° C. for 1 h and then the concentrations of test compounds were determined by HPLC.
For series [6] the following is noted: buffer.
Protocol: as §2

With `COc1ccc2c(c1)nc([S+]([O-])Cc1ncc(C)c(OC)c1C)n2S(=O)(=O)c1ccc(OCC(=O)[O-])cc1.[Na+]` (centres unmarked) [Compound 9, {4-[5-methoxy-2-(4-methoxy-3,5-dimethyl-pyridin-2-ylmethanesulfinyl)-benzimidazole-1-sulfonyl]-phenoxy}-acetic acid sodium salt], the results for the solubility in series [1] and in series [2] were over 30 mg/mL and over 100 µg/mL, respectively. The inhibition in vivo at 40 µmol/kg in series [3] came to 74.4 ± 25.1%.

Regarding `Cc1c(OCC(F)(F)F)ccnc1C[S+]([O-])c1nc2ccccc2n1S(=O)(=O)c1ccc(OCC(=O)[O-])cc1.[Na+]` (centres unmarked) [Compound 2, (4-{2-[3-Methyl-4-(2,2,2-trifluoro-ethoxy)-pyridin-2-ylmethanesulfinyl]-benzimidazole-1-sulfonyl}-phenoxy)acetic acid sodium salt], in series [4], the half-life (usually the time needed for the level to fall by half in the phase considered) was 18 min. Besides, the solubility – broadly, how much of the substance goes into solution per volume – in series [1] is over 50 mg/mL; in series [2] it was over 100 µg/mL. Further, the “% inhibition of gastric acid secretion between 2-4 hours after i.v. administration” value in the series on gastric acid secretion turned out to be 63.1 ± 31.7%. Moreover, the half-life at 0.1 mg/mL in series [5] was over 3000 min. Also, the inhibition in vivo at 40 µmol/kg in series [3] came out at 64.2 ± 11.3%.

`CCC(Oc1ccc(S(=O)(=O)n2c([S+]([O-])Cc3nccc(OCC(F)(F)F)c3C)nc3ccccc32)cc1)C(=O)O` (centres unmarked) [Compound 4, 2-(4-{2-[3-Methyl-4-(2,2,2-trifluoro-ethoxy)-pyridin-2-ylmethanesulfinyl]-benzimidazole-1-sulfonyl}phenoxy)butric acid]: the “% inhibition of gastric acid secretion between 3-5 hours after administration” value in series [3] (20 μmole/kg) was determined as 60.9 ± 25.5%. Moreover, the “Half-life of hydrolysis at pH 7 of the prodrug to the corresponding proton pump inhibitory drug” value in series [6] is given as “over 50 hours”.
